# Measured values published in publication PMC9128668 (Nature, 2021).
# Target: T1, BT1622^3S-Gal/GalNAc (Bacteroides thetaiotaomicron, UniProt Q8A7A3)
# T1 sequence (Q8A7A3 21-500): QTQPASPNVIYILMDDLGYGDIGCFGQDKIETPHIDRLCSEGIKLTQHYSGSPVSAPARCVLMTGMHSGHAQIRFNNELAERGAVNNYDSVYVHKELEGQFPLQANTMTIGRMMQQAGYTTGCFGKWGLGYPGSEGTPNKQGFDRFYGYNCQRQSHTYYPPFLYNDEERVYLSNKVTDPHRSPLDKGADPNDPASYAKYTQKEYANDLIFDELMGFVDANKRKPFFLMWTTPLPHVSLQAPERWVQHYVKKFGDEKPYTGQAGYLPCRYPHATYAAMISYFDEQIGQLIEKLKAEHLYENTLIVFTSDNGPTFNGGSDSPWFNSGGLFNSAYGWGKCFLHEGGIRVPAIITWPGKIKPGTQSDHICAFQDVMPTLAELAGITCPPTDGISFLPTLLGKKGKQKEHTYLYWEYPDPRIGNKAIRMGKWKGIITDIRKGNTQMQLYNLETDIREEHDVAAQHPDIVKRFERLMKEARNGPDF
# Assay: X-ray crystallography
# Assay type: binding
# Details: active site; Ca2+; inactive Ser form; 100 mM ligand
smiles,measurement,value
CC(=O)N[C@H]1C(O)O[C@H](CO)[C@H](O)[C@@H]1O (stereo partly shown) [GalNAc],X-ray crystallography,BT1622^3S-Gal/GalNAc in complex with GalNAc
